From patent US5302587A, “Platinum (II) complex and agent for treating malignant tumor” (Toray Industries, Inc., priority 1989, dated 1994)

Key:
[1] = system: mouse leukemia cells L1210; experiment: Anti-tumor activity in L1210-transplanted mice (Reference Example 3, Table 4); format: in vivo; settings: 0.05% Tween 80, L1210-transplanted CDF1 mice
Experimental: The Samples A, B and C synthesized in Reference Examples 1 and 2 were evaluated for their anti-tumor activities by the following method:
In the abdominal cavities of CDFl mice (male, 6-week old, 6-10 mice/group), 105 mouse leukemia cells L1210 subcultured in DBA/2 mice were transplanted. Taking the day of transplantation as Day 0, the test drugs were separately administered intraperitoneally to the mice on Day 1, Day 5 and Day 9, totaling 3 times. Each drug was administered after dissolving or suspending it in 0.05% Tween 80 solution. The evaluation of the effectiveness was performed based on the T/C value which is obtained by the following equation as well as the number of survived mice on Day 30. [formula]

[2] = system: Cisplatin-resistant mouse leukemia L1210/CDDP cells; experiment: Anti-tumor activity in cisplatin-resistant L1210-transplanted mice (Table 2); format: in vivo; settings: L1210/CDDP-transplanted CDF1 mice
Experimental: In the abdominal cavities of CDFl mice (male, 6-week old, 5-10 mice/group, 105 mouse leukemia L1210 cells passaged in DBA/2 mice were transplanted. Defining the day of transplantation as Day 0, the compounds 1-5 of the present invention were separately administered intraperitoneally to mice on Day 1, Day 5 and Day 9, totaling 3 times. Each compound was administered after dissolving it in distilled water for injection. The evaluation of the anti-tumor activities of the platinum complexes against the L1210-transplanted mice was performed by T/C value which is obtained by the following equation: [formula]
In the abdominal cavities of CDFl mice (male, 6-week old, 5-10 mice/group), 105 Cisplatin-resistant mouse leukemia L1210/CDDP cells passaged in DBA/2 mice were transplanted. Defining the day of transplantation as Day 0, the compounds of the present invention and control drugs were separately administered intraperitoneally to mice on Day 1, Day 5 and Day 9, totaling 3 times.
The compounds of the present invention and carboplatin were administered after dissolving them in distilled water for injection and cisplatin was used after dissolving it in physiological saline for injection. The effectiveness of the compounds was evaluated by using the T/C value as in Example 7.

[3] = 10 mg/kg i.p. on Day 1, 5 and 9
[4] = 25 mg/kg i.p. on Day 1, 5 and 9
[5] = 50 mg/kg i.p. on Day 1, 5 and 9
[6] = 100 mg/kg i.p. on Day 1, 5 and 9
[7] = 200 mg/kg i.p. on Day 1, 5 and 9
[8] = 2.5 mg/kg i.p. on Day 1, 5 and 9
[9] = 7.5 mg/kg i.p. on Day 1, 5 and 9

SMILES: CC(=O)[C-]1C(=O)CCOC1=O.CC(=O)[C-]1C(=O)CCOC1=O.N[C@@H]1CCCC[C@H]1N.O.[Pt+2] (relative stereo) [Sample C, [Pt(II)(trans-l-1,2-diaminocyclohexane)](3-acetyltetrahydropyran-2,4-dione)2.H2 O]
- Number of Survived Mice (Day 30) ([1]; 1 mg/kg i.p. on Day 1, 5 and 9): 0/6
- Survived Days (Mean ± Standard Deviation) ([1]; 1 mg/kg i.p. on Day 1, 5 and 9): 8.7 ± 0.8 days
- T/C ([1]; 1 mg/kg i.p. on Day 1, 5 and 9): 104%
- Number of Survived Mice (Day 30) [1, 3]: 0/6
- Survived Days (Mean ± Standard Deviation) [1, 3]: 9.8 ± 1.6 days
- T/C [1, 3]: 117%
- Number of Survived Mice (Day 30) [1, 4]: 0/6
- Survived Days (Mean ± Standard Deviation) [1, 4]: 9.5 ± 0.5 days
- T/C [1, 4]: 113%
- Number of Survived Mice (Day 30) [1, 5]: 0/6
- Survived Days (Mean ± Standard Deviation) [1, 5]: 8.7 ± 2.2 days
- T/C [1, 5]: 104%
- Number of Survived Mice (Day 30) [1, 6]: 0/6
- Survived Days (Mean ± Standard Deviation) [1, 6]: 8.3 ± 0.8 days
- T/C [1, 6]: 99%
- Number of Survived Mice (Day 30) [1, 7]: 0/6
- Survived Days (Mean ± Standard Deviation) [1, 7]: 6.2 ± 1.5 days
- T/C [1, 7]: 74%

SMILES: CC(=O)[C-]1C(=O)CC(C)OC1=O.CC(=O)[C-]1C(=O)CC(C)OC1=O.N[C@@H]1CCCC[C@H]1N.O.[Pt+2] (relative stereo) [Sample A, [Pt(II)(trans-l-1,2-diaminocyclohexane)](3-acetyl-6-methyltetrahydropyran-2,4-dione)2.H2 O]
- Number of Survived Mice (Day 30) ([1]; 1 mg/kg i.p. on Day 1, 5 and 9): 0/6
- Number of Survived Mice (Day 30) [1, 3]: 0/6
- Survived Days (Mean ± Standard Deviation) [1, 3]: 11.5 ± 1.2 days
- T/C [1, 3]: 137%
- Number of Survived Mice (Day 30) [1, 4]: 0/6
- Survived Days (Mean ± Standard Deviation) [1, 4]: 14.2 ± 3.2 days
- T/C [1, 4]: 169%
- Number of Survived Mice (Day 30) [1, 5]: 0/6
- Survived Days (Mean ± Standard Deviation) [1, 5]: 17.0 ± 3.0 days
- T/C [1, 5]: 202%
- Number of Survived Mice (Day 30) [1, 6]: 0/6
- Survived Days (Mean ± Standard Deviation) [1, 6]: 15.5 ± 5.0 days
- T/C [1, 6]: 185%
- Number of Survived Mice (Day 30) [1, 7]: 0/6
- Survived Days (Mean ± Standard Deviation) [1, 7]: 6.0 days
- T/C [1, 7]: 71%

SMILES: N.N.O=C([O-])C1(C(=O)[O-])CCC1.[Pt+2] [Carboplatin]
- Number of Survived Mice (Day 30) [2, 4]: 0/6
- Survived Days (Mean ± Standard Deviation) [2, 4]: 9.0 ± 1.1 days
- T/C [2, 4]: 99%
- Number of Survived Mice (Day 30) [2, 5]: 0/6
- Survived Days (Mean ± Standard Deviation) [2, 5]: 9.7 ± 0.8 days
- T/C [2, 5]: 107%
- Number of Survived Mice (Day 30) [2, 6]: 0/6
- Survived Days (Mean ± Standard Deviation) [2, 6]: 9.3 ± 0.8 days
- T/C [2, 6]: 102%
- Number of Survived Mice (Day 30) [2, 7]: 0/6
- Survived Days (Mean ± Standard Deviation) [2, 7]: 7.3 ± 1.5 days
- T/C [2, 7]: 80%

SMILES: CC(=O)[C-]1C(=O)CC(C)OC1=O.CC(=O)[C-]1C(=O)CC(C)OC1=O.N[C@@H]1CCCC[C@H]1N.O.[Pt+2] (relative stereo) [Sample B, [Pt(II)(trans-l-1,2-diaminocyclohexane)](3-acetyl-6-methyltetrahydropyran-2,4-dione)2.H2 O]
- Number of Survived Mice (Day 30) [1, 4]: 0/6
- Survived Days (Mean ± Standard Deviation) [1, 4]: 8.5 ± 0.5 days
- T/C [1, 4]: 101%
- Number of Survived Mice (Day 30) [1, 5]: 0/6
- Survived Days (Mean ± Standard Deviation) [1, 5]: 8.8 ± 0.8 days
- T/C [1, 5]: 105%
- Number of Survived Mice (Day 30) [1, 6]: 0/6
- Survived Days (Mean ± Standard Deviation) [1, 6]: 9.2 ± 1.5 days
- T/C [1, 6]: 110%
- Number of Survived Mice (Day 30) [1, 7]: 0/6
- Survived Days (Mean ± Standard Deviation) [1, 7]: 9.5 ± 2.3 days
- T/C [1, 7]: 113%

SMILES: N.N.[Cl][Pt][Cl] [Cisplatin]
- Number of Survived Mice (Day 30) [2, 8]: 0/6
- Survived Days (Mean ± Standard Deviation) [2, 8]: 9.3 ± 1.0 days
- T/C [2, 8]: 102%
- Number of Survived Mice (Day 30) ([2]; 5 mg/kg i.p. on Day 1, 5 and 9): 0/6
- Survived Days (Mean ± Standard Deviation) ([2]; 5 mg/kg i.p. on Day 1, 5 and 9): 8.3 ± 0.5 days
- T/C ([2]; 5 mg/kg i.p. on Day 1, 5 and 9): 91%
- Number of Survived Mice (Day 30) [2, 3]: 0/6
- Survived Days (Mean ± Standard Deviation) [2, 3]: 8.7 ± 0.8 days
- T/C [2, 3]: 96%
- Number of Survived Mice (Day 30) [2, 4]: 0/6
- Survived Days (Mean ± Standard Deviation) [2, 4]: 7.2 ± 1.6 days
- T/C [2, 4]: 79%
- Number of Survived Mice (Day 30) [1, 8]: 0/6
- Survived Days (Mean ± Standard Deviation) [1, 8]: 13.0 ± 2.3 days
- T/C [1, 8]: 155%
- Number of Survived Mice (Day 30) ([1]; 5 mg/kg i.p. on Day 1, 5 and 9): 0/5
- Survived Days (Mean ± Standard Deviation) ([1]; 5 mg/kg i.p. on Day 1, 5 and 9): 13.8 ± 1.1 days
- T/C ([1]; 5 mg/kg i.p. on Day 1, 5 and 9): 164%
- Number of Survived Mice (Day 30) [1, 9]: 0/6
- Survived Days (Mean ± Standard Deviation) [1, 9]: 18.3 ± 6.2 days
- T/C [1, 9]: 218%
